Measured values taken from patent publication US4223036A, “1-(1,3-Dioxolan-2-ylmethyl)-1H-1,2,4-triazoles” (Janssen Pharmaceutica N.V., priority 1979, dated 1980).
Structures can show the parent of a compound that is named as a salt.

Legend:
Candida albicans [1] = experiment: Activity against vaginal candidosis in rats (lowest oral dose active at the 14th day after infection); format: in vivo, Female Wistar rats; parameters: lowest effective oral dose (vaginal candidosis in rats): unit not given here; details: oral once a day for two days, active at 14th day after infection; for lowest effective oral dose (vaginal candidosis in rats): Table I; for minimal effective dose: Candida albicans, 336 h
Experimental: Experiment A: Activity of Compounds (I) Against Vaginal Candidosis in Rats
Female Wistar rats of ±100 g body weight were used. They were ovariectomized and hysterectomized and after three weeks of recovery, 100 μg of oestradiol undecylate in sesame oil was given subcutaneously once a week for 3 consecutive weeks. The thus induced pseudooestrus was controlled by microscopic examination of vaginal smears. Food and water were left available ad libitum.
The rats were infected intravaginally with 8.10^5 cells of Candida albicans, grown on Sabouraud broth for 48 hours at 37° C. and diluted with saline. The date of infection varied from day +25 to day +32 after surgical intervention, depending on the appearance of signs of induced pseudo-oestrus.
The drugs under investigation were administered orally once a day for two days starting from the day of infection. For each experiment there were placebo treated controls. The results were assessed by taking vaginal smears with sterile swabs on several days after infection. The swabs were put into Sabouraud broth in petri-dishes and incubated for 48 hours a 37° C. If no growth of Candida albicans occured, i.e., when the animals were negative at the end of the experiment, this was due to drug administration because it never happened in placebo treated controls.
The Tables I, II and III below give the lowest oral dose of the drug under investigation which was found active at the 14th day after infection.

Candida albicans [2] = experiment: Activity against crop candidosis in turkeys (dose whereby crops of 50% of animals were completely negative); format: in vivo; details: medicated feed for 13 consecutive days
Experimental: Experiment B: Activity of Compounds (I) Against Crop Candidosis in Turkeys
Turkeys of 14 days old were infected in the crop with 4.10^6 Candida albicans cells, grown on Sabouraud broth for 48 hours at 37° C. and diluted with saline. The volume of the inoculum was 1 ml. The drug under investigation were premixed in 500 mg of lacton and thereafter admixed in 1000 g of meal without any additives. The concentration of the drug under investigation in the meal was expressed in mg/kg.
The animals were given the medicated feed for 13 consecutive days starting on the day of infection. At the end of the experiment all animals were sacrificed. At autopsy the crops were removed, emptied and grinded in an ultra-turrax mixer in 15 ml of sterile saline. Colony counting was done on Sabouraud agar and the results given in the Tables I, II and III represent the ED50, i.e., the dose of the drug whereby the crops of 50% of the animals were completely negative for Candida albicans.

Structure (SMILES) | lowest effective oral dose (vaginal candidosis in rats) (Candida albicans [1]) | ED50 (crop candidosis in turkeys) (Candida albicans [2]; Table II) | other results
CS(=O)(=O)N1CCN(c2ccc(OC[C@H]3CO[C@](Cn4ccnc4)(c4ccc(Cl)cc4Cl)O3)cc2)CC1 (relative stereo) | 1.25 |  | ED50 (crop candidosis in turkeys) (Candida albicans [2]; Table I): 31 mg/kg of feed
NC(=S)Nc1ccc(OC[C@H]2CO[C@](Cn3ccnc3)(c3ccc(Cl)cc3Cl)O2)cc1 (relative stereo) [NHCSNH2, cis-N-{4-[2-(2,4-dichlorophenyl)-2-(1H-imidazol-1-yl-methyl)-1,3-dioxolan-4-ylmethoxy]phenyl}thiourea] | 20 |  | 
O=CN1CCN(c2ccc(OC[C@H]3CO[C@](Cn4ccnc4)(c4ccc(Cl)cc4Cl)O3)cc2)CC1 (relative stereo) | < 10 |  | 
CCOC(=O)N1CCN(c2ccc(OC[C@H]3CO[C@](Cn4cncn4)(c4ccc(Cl)cc4Cl)O3)cc2)CC1 (relative stereo) [COOC2 H5, cis-ethyl 4-{4-[2-(2,4-dichlorophenyl)-2-(1H-1,2,4-triazol-1-ylmethyl)-1,3-dioxolan-4-ylmethoxy]phenyl}1-piperazinecarboxylate dihydrochloride] |  | 8 mg/kg of feed | 
O=C(c1ccccc1)N1CCN(c2ccc(OC[C@H]3CO[C@](Cn4cncn4)(c4ccc(Cl)cc4Cl)O3)cc2)CC1 (relative stereo) [COC6 H5, cis-1-benzoyl-4-{4-[2-(2,4-dichlorophenyl)-2-(1H-1,2,4-triazol-1-ylmethyl)-1,3-dioxolan-4-ylmethoxy]phenyl}piperazine] |  |  | minimal effective dose (Candida albicans [1]; Table II): 1.25 mg/kg
CCOC(=O)N1CCN(c2ccc(OCC3COC(Cn4ccnc4)(c4ccc(OC)cc4)O3)cc2)CC1 (centres unmarked) [ethyl 4-{4-[2-(1H-imidazol-1-ylmethyl)-2-(4-methoxyphenyl)-1,3-dioxolan-4-ylmethoxy]phenyl}-1-piperazinecarboxylate (E)-2-butenedioate (2:1)] |  |  | minimal effective dose (Candida albicans [1]; Table III): 2.5 mg/kg
COc1ccc(C2(Cn3ccnc3)OCC(COc3ccc(N4CCN(C(C)=O)CC4)cc3)O2)cc1 (centres unmarked) [1-acetyl-4-{4-[2-(1H-imidazol-1-ylmethyl)-2-(4-methoxyphenyl)-1,3-dioxolan-4-ylmethoxy]phenyl}piperazine] |  |  | ED50 (crop candidosis in turkeys) (Candida albicans [2]; Table III): 31 mg/kg of feed
CC(C)N1CCN(c2ccc(OC[C@H]3CO[C@](Cn4cncn4)(c4ccc(Cl)cc4Cl)O3)cc2)CC1 (relative stereo) [CH(CH3)2] |  |  | minimal effective dose (Candida albicans [1]; Table II): 2.5 mg/kg
CCN1CCN(c2ccc(OC[C@H]3CO[C@](Cn4ccnc4)(c4ccc(Cl)cc4Cl)O3)cc2)CC1 (relative stereo) [drawing 49] | < 2.5 |  | 
CCCC(=O)N1CCN(c2ccc(OC[C@H]3CO[C@](Cn4cncn4)(c4ccc(Cl)cc4Cl)O3)cc2)CC1 (relative stereo) [CO(CH2)2CH3, cis-1-{4-[2-(2,4-dichlorophenyl)-2-(1H-1,2,4-triazol-1-ylmethyl)-1,3-dioxolan-4-ylmethoxy]phenyl}-4-(1-oxobutyl)piperazine dihydrochloride] |  | 16 mg/kg of feed | 
NC(=O)CN1CCN(c2ccc(OC[C@H]3CO[C@](Cn4ccnc4)(c4ccc(Cl)cc4Cl)O3)cc2)CC1 (relative stereo) | 1.25 |  | 
O=S(=O)(Cc1ccccc1)N1CCN(c2ccc(OC[C@H]3CO[C@](Cn4cncn4)(c4ccc(Cl)cc4Cl)O3)cc2)CC1 (relative stereo) [SO2CH2C6H5, cis-1-{4-[2-(2,4-dichlorophenyl)-2-(1H-1,2,4-triazol-1-ylmethyl)-1,3-dioxolan-4-ylmethoxy]phenyl}-4-(phenylmethylsulfonyl)piperazine monohydrate] |  | 16 mg/kg of feed | 
CCC(=O)N1CCN(c2ccc(OC[C@H]3CO[C@](Cn4cncn4)(c4ccc(Cl)cc4Cl)O3)cc2)CC1 (relative stereo) [COC2 H5, cis-1{4-[2-(2,4-dichlorophenyl)-2-(1H-1,2,4-triazol-1-ylmethyl)-1,3-dioxolan-4-ylmethoxy]phenyl}-4-(1-oxopropyl)piperazine dihydrochloride] |  | 8 mg/kg of feed | 
COC(=O)N1CCN(c2ccc(OC[C@H]3CO[C@](Cn4cncn4)(c4ccc(Cl)cc4Cl)O3)cc2)CC1 (relative stereo) [COOCH 3, cis-methyl 4-{4-[2-(2,4-dichlorophenyl)-2-(1H-1,2,4-triazol-1-ylmethyl)-1,3-dioxolan-4-ylmethoxy]phenyl}-1-piperazinecarboxylate] |  | 8 mg/kg of feed | 
CNc1ccc(OC[C@H]2CO[C@](Cn3ccnc3)(c3ccc(Cl)cc3Cl)O2)cc1 (relative stereo) [NHCH3, cis-4-[2-(2,4-dichlorophenyl)-2-(1H-imidazol-1-ylmethyl)-1,3-dioxolan-4-ylmethoxy]-N-methylbenzenamine] | 5 |  | 
CN1CCN(c2ccc(OC[C@H]3CO[C@](Cn4ccnc4)(c4ccc(Cl)cc4Cl)O3)cc2)CC1 (relative stereo) | 2.5 |  | 
O=S(=O)(Cc1ccccc1)N1CCN(c2ccc(OC[C@H]3CO[C@](Cn4ccnc4)(c4ccc(Cl)cc4Cl)O3)cc2)CC1 (relative stereo) |  |  | ED50 (crop candidosis in turkeys) (Candida albicans [2]; Table I): 16 mg/kg of feed
O=C(Oc1ccccc1)N1CCN(c2ccc(OC[C@H]3CO[C@](Cn4cncn4)(c4ccc(Cl)cc4Cl)O3)cc2)CC1 (relative stereo) [COOC6 H5, cis-phenyl 4-{4-[2-(2,4-dichlorophenyl)-2-(1H-1,2,4-triazol-1-ylmethyl)-1,3-dioxolan-4-ylmethoxy]phenyl}-1-piperazinecarboxylate] |  | 16 mg/kg of feed | 
CCOC(=O)N1CCN(c2cccc(OC[C@H]3CO[C@](Cn4ccnc4)(c4ccc(Cl)cc4Cl)O3)c2)CC1 (relative stereo) |  |  | minimal effective dose (Candida albicans [1]; Table III): 2.5 mg/kg
CCCCN1CCN(c2ccc(OC[C@H]3CO[C@](Cn4cncn4)(c4ccc(Cl)cc4Cl)O3)cc2)CC1 (relative stereo) [(CH2)3CH3] |  | 16 mg/kg of feed | 
CCCCN1CCN(c2ccc(OC[C@H]3CO[C@](Cn4ccnc4)(c4ccc(Cl)cc4Cl)O3)cc2)CC1 (relative stereo) |  |  | ED50 (crop candidosis in turkeys) (Candida albicans [2]; Table I): 31 mg/kg of feed
CC(C)CN1CCN(c2ccc(OC[C@H]3CO[C@](Cn4ccnc4)(c4ccc(Cl)cc4Cl)O3)cc2)CC1 (relative stereo) |  |  | ED50 (crop candidosis in turkeys) (Candida albicans [2]; Table I): 16 mg/kg of feed
CCCN1CCN(c2ccc(OC[C@H]3CO[C@](Cn4cncn4)(c4ccc(Cl)cc4Cl)O3)cc2)CC1 (relative stereo) [(CH2)2CH3] |  | 16 mg/kg of feed | 
O=C(Nc1ccc(OC[C@H]2CO[C@](Cn3ccnc3)(c3ccc(Cl)cc3Cl)O2)cc1)c1ccc(Cl)cc1 (relative stereo) |  |  | ED50 (crop candidosis in turkeys) (Candida albicans [2]; Table I): 31 mg/kg of feed
CC(C)N1CCN(c2ccc(OC[C@H]3CO[C@](Cn4ccnc4)(c4ccc(Cl)cc4Cl)O3)cc2)CC1 (relative stereo) | 2.5 |  | 
